Experimental data from the NIST ThermoML archive (doi:10.1021/acs.jced.7b00201).
Numbers after ± are expanded uncertainties.

Tests used:
[1] = 100 kPa, Liquid; for viscosity: Falling or rolling sphere viscometry; for mass density: Vibrating tube method
[2] = xn = mol fraction of the nth substance listed; conditions: 100 kPa, Liquid; for viscosity: Falling or rolling sphere viscometry; for mass density: Vibrating tube method

`CCCCCCCCCCCC` [dodecane] showed a viscosity ([1]; 293.15 K) of 1.481 ± 0.031 mPa·s, a mass density ([1]; 293.15 K) of 748.83 ± 1 kg/m3 and a viscosity ([1]; 298.15 K) of 1.355 ± 0.029 mPa·s. The mass density ([1]; 298.15 K) was 745.23 ± 1 kg/m3, the viscosity ([1]; 303.15 K) was 1.244 ± 0.026 mPa·s and the mass density ([1]; 303.15 K) was 741.6 ± 1 kg/m3. It also gave a viscosity ([1]; 308.15 K) of 1.151 ± 0.024 mPa·s, a mass density ([1]; 308.15 K) of 737.97 ± 1 kg/m3 and a viscosity ([1]; 313.15 K) of 1.066 ± 0.023 mPa·s. It also gave a mass density ([1]; 313.15 K) of 734.33 ± 1 kg/m3, a viscosity ([1]; 318.15 K) of 0.992 ± 0.021 mPa·s and a mass density ([1]; 318.15 K) of 730.68 ± 1 kg/m3. It also gave a viscosity ([1]; 323.15 K) of 0.926 ± 0.02 mPa·s, a mass density ([1]; 323.15 K) of 727.01 ± 1 kg/m3 and a viscosity ([1]; 328.15 K) of 0.867 ± 0.018 mPa·s. For the same molecule, the mass density ([1]; 328.15 K) was 723.35 ± 1 kg/m3, the viscosity ([1]; 333.15 K) was 0.814 ± 0.017 mPa·s and the mass density ([1]; 333.15 K) was 719.67 ± 1 kg/m3. For the same molecule, the viscosity ([1]; 338.15 K) was 0.765 ± 0.016 mPa·s, the mass density ([1]; 338.15 K) was 715.98 ± 1 kg/m3 and the viscosity ([1]; 343.15 K) was 0.724 ± 0.015 mPa·s. For the same molecule, the mass density ([1]; 343.15 K) was 712.28 ± 1 kg/m3.

Work on `CCCCC1CCCCC1` [butylcyclohexane] + OCC1CC1 yielded a viscosity ([2]; 293.15 K, x2 = 0) of 1.305 ± 0.028 mPa·s, a mass density ([2]; 293.15 K, x2 = 0) of 799.34 ± 1 kg/m3 and a viscosity ([2]; 298.15 K, x2 = 0) of 1.202 ± 0.026 mPa·s. The mass density ([2]; 298.15 K, x2 = 0) was 795.59 ± 1 kg/m3, the viscosity ([2]; 303.15 K, x2 = 0) was 1.112 ± 0.024 mPa·s and the mass density ([2]; 303.15 K, x2 = 0) was 791.84 ± 1 kg/m3. It also gave a viscosity ([2]; 308.15 K, x2 = 0) of 1.033 ± 0.022 mPa·s, a mass density ([2]; 308.15 K, x2 = 0) of 788.07 ± 1 kg/m3 and a viscosity ([2]; 313.15 K, x2 = 0) of 0.963 ± 0.021 mPa·s. The mass density ([2]; 313.15 K, x2 = 0) was 784.3 ± 1 kg/m3, the viscosity ([2]; 318.15 K, x2 = 0) was 0.901 ± 0.019 mPa·s and the mass density ([2]; 318.15 K, x2 = 0) was 780.52 ± 1 kg/m3. The viscosity ([2]; 323.15 K, x2 = 0) was 0.844 ± 0.018 mPa·s, the mass density ([2]; 323.15 K, x2 = 0) was 776.74 ± 1 kg/m3 and the viscosity ([2]; 328.15 K, x2 = 0) was 0.794 ± 0.017 mPa·s. The mass density ([2]; 328.15 K, x2 = 0) was 772.93 ± 1 kg/m3, the viscosity ([2]; 333.15 K, x2 = 0) was 0.749 ± 0.016 mPa·s and the mass density ([2]; 333.15 K, x2 = 0) was 769.13 ± 1 kg/m3. The viscosity ([2]; 338.15 K, x2 = 0) was 0.708 ± 0.015 mPa·s, the mass density ([2]; 338.15 K, x2 = 0) was 765.3 ± 1 kg/m3 and the viscosity ([2]; 343.15 K, x2 = 0) was 0.67 ± 0.014 mPa·s. The mass density ([2]; 343.15 K, x2 = 0) was 761.47 ± 1 kg/m3.

Work on `CCCCCCCCCCCC` [dodecane] + OCC1CC1 yielded a viscosity ([2]; 293.15 K, x2 = 0) of 1.481 ± 0.031 mPa·s, a mass density ([2]; 293.15 K, x2 = 0) of 748.83 ± 1 kg/m3 and a viscosity ([2]; 298.15 K, x2 = 0) of 1.355 ± 0.029 mPa·s. It also gave a mass density ([2]; 298.15 K, x2 = 0) of 745.23 ± 1 kg/m3, a viscosity ([2]; 303.15 K, x2 = 0) of 1.244 ± 0.026 mPa·s and a mass density ([2]; 303.15 K, x2 = 0) of 741.6 ± 1 kg/m3. The viscosity ([2]; 308.15 K, x2 = 0) was 1.151 ± 0.024 mPa·s, the mass density ([2]; 308.15 K, x2 = 0) was 737.97 ± 1 kg/m3 and the viscosity ([2]; 313.15 K, x2 = 0) was 1.066 ± 0.023 mPa·s. The mass density ([2]; 313.15 K, x2 = 0) was 734.33 ± 1 kg/m3, the viscosity ([2]; 318.15 K, x2 = 0) was 0.992 ± 0.021 mPa·s and the mass density ([2]; 318.15 K, x2 = 0) was 730.68 ± 1 kg/m3. The viscosity ([2]; 323.15 K, x2 = 0) was 0.926 ± 0.02 mPa·s, the mass density ([2]; 323.15 K, x2 = 0) was 727.01 ± 1 kg/m3 and the viscosity ([2]; 328.15 K, x2 = 0) was 0.867 ± 0.018 mPa·s. The mass density ([2]; 328.15 K, x2 = 0) was 723.35 ± 1 kg/m3, the viscosity ([2]; 333.15 K, x2 = 0) was 0.814 ± 0.017 mPa·s and the mass density ([2]; 333.15 K, x2 = 0) was 719.67 ± 1 kg/m3. The viscosity ([2]; 338.15 K, x2 = 0) was 0.765 ± 0.016 mPa·s, the mass density ([2]; 338.15 K, x2 = 0) was 715.98 ± 1 kg/m3 and the viscosity ([2]; 343.15 K, x2 = 0) was 0.724 ± 0.015 mPa·s. It also gave a mass density ([2]; 343.15 K, x2 = 0) of 712.28 ± 1 kg/m3.

With `OCC1CC1` [cyclopropylmethanol] the viscosity ([1]; 293.15 K) was 4.029 ± 0.086 mPa·s, the mass density ([1]; 293.15 K) was 912.99 ± 1 kg/m3 and the viscosity ([1]; 298.15 K) was 3.485 ± 0.075 mPa·s. It also gave a mass density ([1]; 298.15 K) of 908.94 ± 1 kg/m3, a viscosity ([1]; 303.15 K) of 3.037 ± 0.065 mPa·s and a mass density ([1]; 303.15 K) of 904.85 ± 1 kg/m3. For the same molecule, the viscosity ([1]; 308.15 K) was 2.661 ± 0.057 mPa·s, the mass density ([1]; 308.15 K) was 900.74 ± 1 kg/m3 and the viscosity ([1]; 313.15 K) was 2.344 ± 0.05 mPa·s. It also gave a mass density ([1]; 313.15 K) of 896.58 ± 1 kg/m3, a viscosity ([1]; 318.15 K) of 2.074 ± 0.044 mPa·s and a mass density ([1]; 318.15 K) of 892.38 ± 1 kg/m3. For the same molecule, the viscosity ([1]; 323.15 K) was 1.843 ± 0.04 mPa·s, the mass density ([1]; 323.15 K) was 888.13 ± 1 kg/m3 and the viscosity ([1]; 328.15 K) was 1.646 ± 0.035 mPa·s. It also gave a mass density ([1]; 328.15 K) of 883.84 ± 1 kg/m3, a viscosity ([1]; 333.15 K) of 1.476 ± 0.032 mPa·s and a mass density ([1]; 333.15 K) of 879.49 ± 1 kg/m3. It also gave a viscosity ([1]; 338.15 K) of 1.328 ± 0.028 mPa·s, a mass density ([1]; 338.15 K) of 875.07 ± 1 kg/m3 and a viscosity ([1]; 343.15 K) of 1.201 ± 0.026 mPa·s. The mass density ([1]; 343.15 K) was 870.62 ± 1 kg/m3.

Molecule `CCCCCCCCCCCC` [dodecane] + CCCCC1CCCCC1 has a viscosity ([2]; 293.15 K, x1 = 1) of 1.481 ± 0.031 mPa·s, a mass density ([2]; 293.15 K, x1 = 1) of 748.83 ± 1 kg/m3 and a viscosity ([2]; 298.15 K, x1 = 1) of 1.355 ± 0.029 mPa·s. For the same molecule, the mass density ([2]; 298.15 K, x1 = 1) was 745.23 ± 1 kg/m3, the viscosity ([2]; 303.15 K, x1 = 1) was 1.244 ± 0.026 mPa·s and the mass density ([2]; 303.15 K, x1 = 1) was 741.6 ± 1 kg/m3. The viscosity ([2]; 308.15 K, x1 = 1) was 1.151 ± 0.024 mPa·s, the mass density ([2]; 308.15 K, x1 = 1) was 737.97 ± 1 kg/m3 and the viscosity ([2]; 313.15 K, x1 = 1) was 1.066 ± 0.023 mPa·s. The mass density ([2]; 313.15 K, x1 = 1) was 734.33 ± 1 kg/m3, the viscosity ([2]; 318.15 K, x1 = 1) was 0.992 ± 0.021 mPa·s and the mass density ([2]; 318.15 K, x1 = 1) was 730.68 ± 1 kg/m3. It also gave a viscosity ([2]; 323.15 K, x1 = 1) of 0.926 ± 0.02 mPa·s, a mass density ([2]; 323.15 K, x1 = 1) of 727.01 ± 1 kg/m3 and a viscosity ([2]; 328.15 K, x1 = 1) of 0.867 ± 0.018 mPa·s. The mass density ([2]; 328.15 K, x1 = 1) was 723.35 ± 1 kg/m3, the viscosity ([2]; 333.15 K, x1 = 1) was 0.814 ± 0.017 mPa·s and the mass density ([2]; 333.15 K, x1 = 1) was 719.67 ± 1 kg/m3. It also gave a viscosity ([2]; 338.15 K, x1 = 1) of 0.765 ± 0.016 mPa·s, a mass density ([2]; 338.15 K, x1 = 1) of 715.98 ± 1 kg/m3 and a viscosity ([2]; 343.15 K, x1 = 1) of 0.724 ± 0.015 mPa·s. The mass density ([2]; 343.15 K, x1 = 1) was 712.28 ± 1 kg/m3.

With `CCCCC1CCCCC1` [butylcyclohexane] the viscosity ([1]; 293.15 K) was 1.305 ± 0.028 mPa·s, the mass density ([1]; 293.15 K) was 799.34 ± 1 kg/m3 and the viscosity ([1]; 298.15 K) was 1.202 ± 0.026 mPa·s. The mass density ([1]; 298.15 K) was 795.59 ± 1 kg/m3, the viscosity ([1]; 303.15 K) was 1.112 ± 0.024 mPa·s and the mass density ([1]; 303.15 K) was 791.84 ± 1 kg/m3. The viscosity ([1]; 308.15 K) was 1.033 ± 0.022 mPa·s, the mass density ([1]; 308.15 K) was 788.07 ± 1 kg/m3 and the viscosity ([1]; 313.15 K) was 0.963 ± 0.021 mPa·s. It also gave a mass density ([1]; 313.15 K) of 784.3 ± 1 kg/m3, a viscosity ([1]; 318.15 K) of 0.901 ± 0.019 mPa·s and a mass density ([1]; 318.15 K) of 780.52 ± 1 kg/m3. It also gave a viscosity ([1]; 323.15 K) of 0.844 ± 0.018 mPa·s, a mass density ([1]; 323.15 K) of 776.74 ± 1 kg/m3 and a viscosity ([1]; 328.15 K) of 0.794 ± 0.017 mPa·s. For the same molecule, the mass density ([1]; 328.15 K) was 772.93 ± 1 kg/m3, the viscosity ([1]; 333.15 K) was 0.749 ± 0.016 mPa·s and the mass density ([1]; 333.15 K) was 769.13 ± 1 kg/m3. It also gave a viscosity ([1]; 338.15 K) of 0.708 ± 0.015 mPa·s, a mass density ([1]; 338.15 K) of 765.3 ± 1 kg/m3 and a viscosity ([1]; 343.15 K) of 0.67 ± 0.014 mPa·s. The mass density ([1]; 343.15 K) was 761.47 ± 1 kg/m3.
